Test systems include ACHN; CAKI-1; HL-60; HT-29; IGROV-1; KM12; NCI-H226; NCI-H460; NCI-H522; OVCAR-3; OVCAR-4; SF-268; SF-295; SK-OV-3; SNB-19; SR; SW-620; U-251; UACC-257; UO-31.
Common to all, as to assay: DTP human tumour cell line panel, 48 h

SMILES strings stand for the structures.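 96-well plates; 48 h exposure; 5 concentrations. Endpoints by linear interpolation between flanking doses. Not reached: highest tested concentration assigned. The concentration for 50% growth inhibition is given as GI50.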 Active and inactive are the calls of the source. Rule as the data show it: active = GI50 up to about 1.1 µM and inactive = higher. Where only a bound is given, the exact number is not on record here.

By GI50 is commonly meant the concentration that inhibits growth by half.

As for `Clc1cc2c(c(CSC3=NCN(CC4CC4)CN3)c1)OCOC2`, the GI50 with ACHN was 17.6 µM (inactive); in the experiment on CAKI-1, 34.2 µM (inactive); in the experiment with HL-60, 13.6 µM (inactive); with HT-29, 20.3 µM (inactive); with IGROV-1, 35.9 µM (inactive); with KM12, 30.8 µM (inactive). The GI50 in the experiment with NCI-H226 was 20.7 µM (inactive); in the experiment on NCI-H460, 17.8 µM (inactive); with NCI-H522, 14.5 µM (inactive); in the experiment with OVCAR-3, 23.4 µM (inactive); in the experiment on OVCAR-4 it was 34.3 µM (inactive); in the experiment on SF-268 it was 27.3 µM (inactive). Moreover, the GI50 with SF-295 was 24.6 µM (inactive); in the experiment on SK-OV-3 it was 24.6 µM (inactive); with SNB-19, 26.1 µM (inactive); with SR it was 15.2 µM (inactive); in the experiment with SW-620, 20.5 µM (inactive); in the experiment on U-251 it was 19.6 µM (inactive). Moreover, the results for the GI50 in the experiment on UACC-257 and in the experiment on UO-31 were 16.2 µM (inactive) and 12.7 µM (inactive), respectively.

For `CCOC(=O)CC(=O)CSc1c(-c2ccccc2)c(=O)n(-c2ccccc2)c(=S)n1-c1ccccc1`, the GI50 in the experiment with ACHN was > 100 µM (inactive); with CAKI-1, > 100 µM (inactive); in the experiment with HL-60 it was > 100 µM (inactive); with HT-29, > 100 µM (inactive); with IGROV-1 it was 19.8 µM (inactive); in the experiment on KM12, > 100 µM (inactive). Moreover, the GI50 in the experiment on NCI-H226 is > 100 µM (inactive); with NCI-H460 it was > 100 µM (inactive); in the experiment on NCI-H522, 69.7 µM (inactive); in the experiment on OVCAR-3, > 100 µM (inactive); in the experiment with OVCAR-4, > 100 µM (inactive); in the experiment with SF-268, > 100 µM (inactive). For the same molecule, the GI50 with SF-295 is > 100 µM (inactive); in the experiment on SK-OV-3, > 100 µM (inactive); in the experiment on SNB-19, > 100 µM (inactive); with SR it was 95.1 µM (inactive); in the experiment with SW-620 it was > 100 µM (inactive); with U-251, > 100 µM (inactive). Also, the GI50 in the experiment with UACC-257 and in the experiment on UO-31 was > 100 µM (inactive) each time.

Turning to `N#CC1(C#N)C(=O)c2ccncc2C1=O`, the GI50 with ACHN, in the experiment with CAKI-1, with HL-60, with HT-29, in the experiment with IGROV-1 and in the experiment on KM12 was > 100 µM (inactive) in each case. Moreover, the GI50 in the experiment on NCI-H226, in the experiment with NCI-H460, in the experiment on NCI-H522, in the experiment on OVCAR-3, in the experiment on OVCAR-4 and with SF-268 was > 100 µM (inactive) throughout. Also, the GI50 with SF-295, in the experiment on SK-OV-3, in the experiment with SNB-19, in the experiment on SR, with SW-620 and with U-251 was > 100 µM (inactive) in each case. Also, the GI50 in the experiment on UACC-257 and in the experiment with UO-31 was > 100 µM (inactive) in each case.

As to `COc1cc(/C=C/C(=O)C(C)(C)C)cc(OC)c1OC`, the GI50 in the experiment with ACHN is 39.7 µM (inactive); in the experiment with CAKI-1 it was 50.1 µM (inactive); with HL-60 it was 21.1 µM (inactive); in the experiment on HT-29 it was 38 µM (inactive); with KM12, 24.8 µM (inactive); in the experiment with NCI-H226, 33.6 µM (inactive). Further, the GI50 with NCI-H460 was 25.5 µM (inactive); in the experiment with NCI-H522 it was 29 µM (inactive); with OVCAR-3, 37.2 µM (inactive); in the experiment on OVCAR-4, 14.8 µM (inactive); in the experiment on SF-268, 33.9 µM (inactive); with SF-295, 38.9 µM (inactive). Moreover, the GI50 in the experiment with SK-OV-3 was 29.8 µM (inactive); with SNB-19, > 100 µM (inactive); in the experiment on SR, 30.2 µM (inactive); in the experiment on SW-620 it was 32.7 µM (inactive); in the experiment with U-251 it was 37.8 µM (inactive); in the experiment on UACC-257, 28.1 µM (inactive). Moreover, the GI50 in the experiment with UO-31 was > 100 µM (inactive).

Turning to `O=C1C=CC2=[N+]([O-])C(c3ccccc3)(c3ccccc3)/C(=N\c3ccccc3)C2=C1`, the GI50 is 1.74 µM (inactive) in the experiment with ACHN; 2.44 µM (inactive) in the experiment on CAKI-1; 0.349 µM (active) in the experiment with HL-60; 2.41 µM (inactive) with HT-29; 1.82 µM (inactive) with IGROV-1; 8.89 µM (inactive) with NCI-H226. Also, the GI50 was 11 µM (inactive) in the experiment with NCI-H460; 1.61 µM (inactive) in the experiment on NCI-H522; 1.82 µM (inactive) in the experiment on OVCAR-3; 1.8 µM (inactive) with OVCAR-4; 3.28 µM (inactive) with SF-268; 14.5 µM (inactive) in the experiment with SF-295. For the same molecule, the GI50 with SK-OV-3 was 17.8 µM (inactive); with SNB-19, 17.2 µM (inactive); in the experiment with SR it was 0.269 µM (active); with SW-620, 1.91 µM (inactive); in the experiment on U-251, 2.5 µM (inactive); in the experiment with UACC-257, 2.38 µM (inactive). Moreover, the GI50 in the experiment with UO-31 is 2.21 µM (inactive).

Regarding `C=C(C)[C@@H]1CCC2=C[C@H](CC(C)=CC3=CC(C)=C(O3)[C@@H]1OC)OC2=O`, the GI50 in the experiment on ACHN was 76.6 µM (inactive); in the experiment on CAKI-1 it was > 100 µM (inactive); in the experiment with HL-60, > 100 µM (inactive); in the experiment with IGROV-1, > 100 µM (inactive); with KM12, > 100 µM (inactive); in the experiment on NCI-H226, 73.8 µM (inactive). The GI50 is > 100 µM (inactive) in the experiment with NCI-H460; > 100 µM (inactive) with NCI-H522; > 100 µM (inactive) in the experiment with OVCAR-3; > 100 µM (inactive) in the experiment on OVCAR-4; 33.7 µM (inactive) with SF-268; 21 µM (inactive) in the experiment with SF-295. Besides, the GI50 in the experiment on SNB-19 was 37.2 µM (inactive); in the experiment with SR, > 100 µM (inactive); with SW-620, > 100 µM (inactive); in the experiment with U-251, 33.1 µM (inactive); in the experiment on UACC-257, > 100 µM (inactive); in the experiment on UO-31, > 100 µM (inactive).

Take `CN1NC(c2ccccc2)=C(C#N)C(=O)CC1c1ccc(Br)cc1` (stereo not drawn): the GI50 was 34 µM (inactive) with ACHN; 41.9 µM (inactive) in the experiment on CAKI-1; 29 µM (inactive) in the experiment on HL-60; 28.9 µM (inactive) with HT-29; 25.2 µM (inactive) in the experiment with KM12; 0.123 µM (active) in the experiment on NCI-H226. The GI50 was 33.3 µM (inactive) with NCI-H460; 22.3 µM (inactive) with NCI-H522; 45.6 µM (inactive) with OVCAR-4; 35.9 µM (inactive) in the experiment with SF-268; 11.9 µM (inactive) in the experiment with SF-295; 31.8 µM (inactive) with SK-OV-3. Further, the GI50 in the experiment with SNB-19 is 28.8 µM (inactive); in the experiment on SR, 36.2 µM (inactive); with SW-620, 25.6 µM (inactive); with U-251, > 10 µM (inactive); in the experiment with UACC-257, 69.5 µM (inactive).

The values are drawn from ChEMBL document CHEMBL1201862, “PubChem BioAssay data set” (2004).
